Measured values reported in patent US20260042731A1, “(2,4-DICHLOROPHENOXY)ACETIC ACID ANALOGS” (CORTEVA AGRISCIENCE LLC, priority 2022, published 2026).
Like-named read-outs stand apart in the source and are kept apart here.

Tests used:
[1] = test system: glyphosate resistant Conyza canadensis (L.) (ERICA), horseweed; assay: Postemergence herbicide evaluation, growth of Conyza canadensis (ERICA); type: in vivo; settings: Erigeron canadensis, post-emergence, percent reduction in plant size vs untreated control, read-out: Ave. ERICA; for pest or weed control at 280 g/ha: 280 g ae/ha; for pest or weed control at 560 g/ha: 560 g ae/ha
[2] = test system: Chenopodium album (CHEAL), common lambsquarters; assay: Postemergence herbicide evaluation, growth of Chenopodium album (CHEAL); type: in vivo; settings: Chenopodium album, post-emergence, percent reduction in plant size vs untreated control, read-out: Ave. CHEAL; for pest or weed control at 280 g/ha: 280 g ae/ha; for pest or weed control at 560 g/ha: 560 g ae/ha
[3] = test system: Amaranthus rudis (AMATA), tall water hemp; assay: Postemergence herbicide evaluation, growth of Amaranthus rudis (AMATA); type: in vivo; settings: Amaranthus tuberculatus, post-emergence, percent reduction in plant size vs untreated control, read-out: Ave. AMATA; for pest or weed control at 280 g/ha: 280 g ae/ha; for pest or weed control at 560 g/ha: 560 g ae/ha
[4] = Volatility of compounds measured by thermogravimetric analysis (TGA); type: physicochemical
[5] = test system: Abutilon theophrasti (ABUTH), velvetleaf; assay: Postemergence herbicide evaluation, growth of Abutilon theophrasti (ABUTH); type: in vivo; settings: Abutilon theophrasti, post-emergence, percent reduction in plant size vs untreated control, read-out: AVE. ABUTH; for pest or weed control at 280 g/ha: 280 g ae/ha; for pest or weed control at 560 g/ha: 560 g ae/ha
[6] = test system: weeds ABUTH, AMATA, AMBEL, CHEAL, ERICA; assay: Postemergence herbicide evaluation, overall average % weed control across ABUTH, AMATA, AMBEL, CHEAL and ERICA; type: in vivo; settings: post-emergence, average over five weeds, read-out: Overall Ave % Weed Control; for pest or weed control at 280 g/ha: 280 g ae/ha; for pest or weed control at 560 g/ha: 560 g ae/ha
[7] = test system: Ambrosia artemisiifolia (AMBEL), common ragweed; assay: Postemergence herbicide evaluation, growth of Ambrosia artemisiifolia (AMBEL); type: in vivo; settings: Ambrosia artemisiifolia, post-emergence, percent reduction in plant size vs untreated control, read-out: AVE. AMBEL; for pest or weed control at 280 g/ha: 280 g ae/ha; for pest or weed control at 560 g/ha: 560 g ae/ha

O=C(COc1cc(Cl)cc(Cl)c1)OCCCOC(=O)COc1ccc(Cl)cc1Cl [Compound B7]
pest or weed control at 280 g/ha ([1]; 168 h, 7 DAA): 82.5%
pest or weed control at 560 g/ha ([1]; 168 h, 7 DAA): 85%
pest or weed control at 280 g/ha ([1]; 336 h, 14 DAA): 70%
pest or weed control at 560 g/ha ([1]; 336 h, 14 DAA): 91.5%
pest or weed control at 280 g/ha ([1]; 504 h, 21 DAA): 99%
pest or weed control at 560 g/ha ([1]; 504 h, 21 DAA): 98.5%
pest or weed control at 280 g/ha ([2]; 168 h, 7 DAA): 82.5%
pest or weed control at 560 g/ha ([2]; 168 h, 7 DAA): 77.5%
pest or weed control at 280 g/ha ([2]; 336 h, 14 DAA): 96.5%
pest or weed control at 560 g/ha ([2]; 336 h, 14 DAA): 96.5%
pest or weed control at 280 g/ha ([2]; 504 h, 21 DAA): 90%
pest or weed control at 560 g/ha ([2]; 504 h, 21 DAA): 87.5%
pest or weed control at 280 g/ha ([3]; 168 h, 7 DAA): 57.5%
pest or weed control at 560 g/ha ([3]; 168 h, 7 DAA): 67.5%
pest or weed control at 280 g/ha ([3]; 336 h, 14 DAA): 85%
pest or weed control at 560 g/ha ([3]; 336 h, 14 DAA): 85%
pest or weed control at 280 g/ha ([3]; 504 h, 21 DAA): 70%
pest or weed control at 560 g/ha ([3]; 504 h, 21 DAA): 52.5%
TGA Data (rate of weight loss, volatility) [4]: 0.03572 µg/min
pest or weed control at 280 g/ha ([5]; 168 h, 7 DAA): 20%
pest or weed control at 560 g/ha ([5]; 168 h, 7 DAA): 37.5%
pest or weed control at 280 g/ha ([5]; 336 h, 14 DAA): 17.5%
pest or weed control at 560 g/ha ([5]; 336 h, 14 DAA): 30%
pest or weed control at 280 g/ha ([5]; 504 h, 21 DAA): 15%
pest or weed control at 560 g/ha ([5]; 504 h, 21 DAA): 42.5%
pest or weed control at 280 g/ha ([6]; 168 h, 7 DAA): 61%
pest or weed control at 560 g/ha ([6]; 168 h, 7 DAA): 68%
pest or weed control at 280 g/ha ([6]; 336 h, 14 DAA): 65.3%
pest or weed control at 560 g/ha ([6]; 336 h, 14 DAA): 74.1%
pest or weed control at 280 g/ha ([6]; 504 h, 21 DAA): 70.3%
pest or weed control at 560 g/ha ([6]; 504 h, 21 DAA): 76.2%
pest or weed control at 280 g/ha ([7]; 168 h, 7 DAA): 62.5%
pest or weed control at 560 g/ha ([7]; 168 h, 7 DAA): 72.5%
pest or weed control at 280 g/ha ([7]; 336 h, 14 DAA): 57.5%
pest or weed control at 560 g/ha ([7]; 336 h, 14 DAA): 67.5%
pest or weed control at 280 g/ha ([7]; 504 h, 21 DAA): 77.5%
pest or weed control at 560 g/ha ([7]; 504 h, 21 DAA): 100%

O=C(COc1ccc(Cl)cc1Cl)Nc1ccnc(Cl)c1 [Compound D13]
pest or weed control at 280 g/ha ([1]; 168 h, 7 DAA): 80%
pest or weed control at 560 g/ha ([1]; 168 h, 7 DAA): 82.5%
pest or weed control at 280 g/ha ([1]; 336 h, 14 DAA): 92.5%
pest or weed control at 560 g/ha ([1]; 336 h, 14 DAA): 91.5%
pest or weed control at 280 g/ha ([1]; 504 h, 21 DAA): 97.5%
pest or weed control at 560 g/ha ([1]; 504 h, 21 DAA): 99%
pest or weed control at 280 g/ha ([2]; 168 h, 7 DAA): 77.5%
pest or weed control at 560 g/ha ([2]; 168 h, 7 DAA): 75%
pest or weed control at 280 g/ha ([2]; 336 h, 14 DAA): 95%
pest or weed control at 560 g/ha ([2]; 336 h, 14 DAA): 98%
pest or weed control at 280 g/ha ([2]; 504 h, 21 DAA): 90%
pest or weed control at 560 g/ha ([2]; 504 h, 21 DAA): 92.5%
pest or weed control at 280 g/ha ([3]; 168 h, 7 DAA): 72.5%
pest or weed control at 560 g/ha ([3]; 168 h, 7 DAA): 75%
pest or weed control at 280 g/ha ([3]; 336 h, 14 DAA): 91%
pest or weed control at 560 g/ha ([3]; 336 h, 14 DAA): 84%
pest or weed control at 280 g/ha ([3]; 504 h, 21 DAA): 80%
pest or weed control at 560 g/ha ([3]; 504 h, 21 DAA): 92%
TGA Data (rate of weight loss, volatility) [4]: 0.06009 µg/min
pest or weed control at 280 g/ha ([5]; 168 h, 7 DAA): 35%
pest or weed control at 560 g/ha ([5]; 168 h, 7 DAA): 32.5%
pest or weed control at 280 g/ha ([5]; 336 h, 14 DAA): 40%
pest or weed control at 560 g/ha ([5]; 336 h, 14 DAA): 35%
pest or weed control at 280 g/ha ([5]; 504 h, 21 DAA): 57.5%
pest or weed control at 560 g/ha ([5]; 504 h, 21 DAA): 37.5%
pest or weed control at 280 g/ha ([6]; 168 h, 7 DAA): 67%
pest or weed control at 560 g/ha ([6]; 168 h, 7 DAA): 68%
pest or weed control at 280 g/ha ([6]; 336 h, 14 DAA): 78.7%
pest or weed control at 560 g/ha ([6]; 336 h, 14 DAA): 79.9%
pest or weed control at 280 g/ha ([6]; 504 h, 21 DAA): 83.8%
pest or weed control at 560 g/ha ([6]; 504 h, 21 DAA): 74.2%
pest or weed control at 280 g/ha ([7]; 168 h, 7 DAA): 70%
pest or weed control at 560 g/ha ([7]; 168 h, 7 DAA): 75%
pest or weed control at 280 g/ha ([7]; 336 h, 14 DAA): 75%
pest or weed control at 560 g/ha ([7]; 336 h, 14 DAA): 91%
pest or weed control at 280 g/ha ([7]; 504 h, 21 DAA): 94%
pest or weed control at 560 g/ha ([7]; 504 h, 21 DAA): 50%
